Source: ChEMBL document CHEMBL1201862, “PubChem BioAssay data set” (2004)
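Tested at 5 concentrations; 48 h exposure; 96-well plates; endpoints linearly interpolated, else capped at highest concentration. GI50 marks 50% less growth.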 Calls of active or inactive are those of the source. No stated cut-off is given here; in the data, active = GI50 up to about 1.1 µM and inactive = higher.

Columns and labels:
Assay in all cases: growth of human tumour cells (NCI), 48 h
[1] = test system: MCF7
[2] = test system: HCT-116
[3] = test system: CCRF-CEM
[4] = test system: SK-MEL-5
[5] = test system: SK-MEL-2
[6] = test system: NCI/ADR-RES
[7] = test system: OVCAR-3
[8] = test system: COLO 205
[9] = test system: A549
[10] = test system: HCC 2998
[11] = test system: HOP-92
[12] = test system: U-251
[13] = test system: NCI-H23
[14] = test system: SK-MEL-28
[15] = test system: RXF 393
[16] = test system: BT-549
[17] = test system: SF-295
[18] = test system: RPMI-8226
[19] = test system: HOP-62

| SMILES | GI50 [1] | GI50 [2] | GI50 [3] | GI50 [4] | GI50 [5] | GI50 [6] | GI50 [7] | GI50 [8] | GI50 [9] | GI50 [10] | GI50 [11] | GI50 [12] | GI50 [13] | GI50 [14] | GI50 [15] | GI50 [16] | GI50 [17] | GI50 [18] | GI50 [19] |
| --- | --- | --- | --- | --- | --- | --- | --- | --- | --- | --- | --- | --- | --- | --- | --- | --- | --- | --- | --- |
| N#CC1(C#N)C2CCCCC23OC(=N)C1(C#N)C(c1ccco1)O3 (stereo not given) | 21.9 µM (inactive) | 17.4 µM (inactive) | 10.5 µM (inactive) | 15.5 µM (inactive) | 17.6 µM (inactive) | 44.3 µM (inactive) | 16.1 µM (inactive) | 11.9 µM (inactive) | > 100 µM (inactive) | 15.1 µM (inactive) | 13.8 µM (inactive) | > 10 µM (inactive) | 26.1 µM (inactive) | 15.6 µM (inactive) | 21.7 µM (inactive) | 15.6 µM (inactive) | > 100 µM (inactive) | – | – |
| COc1ccc2c(c1)CN1C(=N2)CSC1c1cc([N+](=O)[O-])ccc1Cl (stereo not given) | 28.2 µM (inactive) | 27.2 µM (inactive) | – | 25.6 µM (inactive) | 31.1 µM (inactive) | 25.1 µM (inactive) | – | 30.8 µM (inactive) | 33.2 µM (inactive) | 33.1 µM (inactive) | 37.4 µM (inactive) | 40.6 µM (inactive) | 29 µM (inactive) | – | 26.2 µM (inactive) | 22.5 µM (inactive) | 39.4 µM (inactive) | 21 µM (inactive) | 75.2 µM (inactive) |
| O=C(O)C1=NN(c2ccc(S(=O)(=O)O)cc2)C2(C1)C(Cl)C(=O)N2c1nc2ccccc2s1 (stereo not given) | 14.4 µM (inactive) | 16.5 µM (inactive) | – | 12.8 µM (inactive) | 15.6 µM (inactive) | 23.9 µM (inactive) | 12.8 µM (inactive) | 18.6 µM (inactive) | 16.6 µM (inactive) | 18.8 µM (inactive) | 20.5 µM (inactive) | 15.8 µM (inactive) | 14.4 µM (inactive) | 20.2 µM (inactive) | 16.1 µM (inactive) | 17.4 µM (inactive) | 15.6 µM (inactive) | 13.1 µM (inactive) | 12.5 µM (inactive) |
| C1CSCCSCCSCCSCCS1 | > 100 µM (inactive) | > 100 µM (inactive) | – | > 100 µM (inactive) | > 100 µM (inactive) | > 100 µM (inactive) | > 100 µM (inactive) | > 100 µM (inactive) | > 100 µM (inactive) | > 100 µM (inactive) | > 100 µM (inactive) | > 100 µM (inactive) | > 100 µM (inactive) | > 100 µM (inactive) | > 100 µM (inactive) | > 100 µM (inactive) | > 100 µM (inactive) | > 100 µM (inactive) | > 100 µM (inactive) |
| CC12CCC(C(Br)(Br)C1=O)C2(C)C (stereo not given) | 0.082 µM (active) | 0.128 µM (active) | < 0.0166 µM (active) | 0.348 µM (active) | – | 0.131 µM (active) | 0.507 µM (active) | 3.01 µM (inactive) | 4.07 µM (inactive) | 2.28 µM (inactive) | 0.617 µM (active) | < 0.0469 µM (active) | 0.123 µM (active) | 0.826 µM (active) | 0.183 µM (active) | 0.173 µM (active) | 3.49 µM (inactive) | 0.0759 µM (active) | 6 µM (inactive) |
| CO/C(N)=C(C#N)/N=C/c1cccs1 | 24.4 µM (inactive) | 42.2 µM (inactive) | 66.4 µM (inactive) | 39.4 µM (inactive) | > 100 µM (inactive) | 98.2 µM (inactive) | 49.8 µM (inactive) | 36.6 µM (inactive) | > 100 µM (inactive) | > 100 µM (inactive) | > 100 µM (inactive) | 74 µM (inactive) | > 100 µM (inactive) | 45.4 µM (inactive) | > 100 µM (inactive) | 95.1 µM (inactive) | > 100 µM (inactive) | – | 98.4 µM (inactive) |
